The target in test [1] is integrin α4 protein (ITGA4) (not stated (endogenous in fibroblasts; mouse NIH/3T3 and human HFL1 cells were cultured)) (UniProt Q00651). As to conditions: scale: % of that observed in cells that only received TGF-β1 treatment.
The test system of test [2] is fixed ECM of fibroblasts or differentiated myofibroblasts. Briefly: AF38Pep-Cy5 labelling of ECM vs FN1 immunostaining. Format: cell-based. How it is done:
A solution containing 1:1 molar ratio of AF38Pep to non-sulphated Cy5-NHS-ester (APExBIO, Houston, TX, USA) was incubated overnight in RT, shielded from light and under constant mixing. The following day, the solution was passed through a PD-10 Sephadex G-25 M gel filtration column (GE Healthcare, Chicago, IL, USA) into PBS. The first 3 fractions (highest molecular weight) were collected, dialyzed (membrane MWCO 1 kDa) against ddH2O overnight, and concentrated by vacuum centrifuge at 3000 rpm at 60 °C for 3 h. Fibroblasts were grown to 70% confluence in 12-well tissue culture plates, before growth arrest in serum-free DMEM for 48 h. […] Any AF38Pep-Cy5 that remained bound to EDA-FN was assessed using an IVIS imaging system (Caliper Life Sciences, PerkinElmer, Hopkinton, MA, USA) set to detect Cy5.5 epifluorescence after excitation at 640 nm. Epifluorescence was quantified using Living Image v4.2 analysis software (Caliper Life Sciences).
Cells were grown to 40% confluence in 8-well glass chamber slides (Nunc, Thermo Fisher Scientific), prior to growth arrest and treatment. […] Cells were then mounted in DAPI Fluoromount-G (Thermo Fisher Scientific) and imaged using a Zeiss Axio Imager Z1 UV fluorescence microscope (Zeiss, Jena, Germany) and a Leica TCS SP5 laser scanning confocal microscope (Leica Biosystems, Baden-Württemberg, Germany).

The subject of test [3] is EDA-FN in fixed fibroblast or myofibroblast ECM. Put plainly: Competitive labelling of fixed matrices, AF38Pep-Cy5 and IST-9. Format: cell-based. How it is done: (§1) A solution containing 1:1 molar ratio of AF38Pep to non-sulphated Cy5-NHS-ester (APExBIO, Houston, TX, USA) was incubated overnight in RT, shielded from light and under constant mixing. The following day, the solution was passed through a PD-10 Sephadex G-25 M gel filtration column (GE Healthcare, Chicago, IL, USA) into PBS. The first 3 fractions (highest molecular weight) were collected, dialyzed (membrane MWCO 1 kDa) against ddH2O overnight, and concentrated by vacuum centrifuge at 3000 rpm at 60 °C for 3 h. Fibroblasts were grown to 70% confluence in 12-well tissue culture plates, before growth arrest in serum-free DMEM for 48 h. Cells were then treated with 10 ng/mL TGF-β1 for 0, 24, 48 and 72 h. The conjugated AF38Pep-Cy5 was added to the plate wells at 10 µg/mL and was incubated for 2 h. The culture medium was removed, and cells were washed three times with PBS before replenishment with fresh serum-free DMEM. Any AF38Pep-Cy5 that remained bound to EDA-FN was assessed using an IVIS imaging system (Caliper Life Sciences, PerkinElmer, Hopkinton, MA, USA) set to detect Cy5.5 epifluorescence after excitation at 640 nm. Epifluorescence was quantified using Living Image v4.2 analysis software (Caliper Life Sciences).
Cells were grown to 40% confluence in 8-well glass chamber slides (Nunc, Thermo Fisher Scientific), prior to growth arrest and treatment. Cells were washed with PBS before fixation in 4% paraformaldehyde for 10 min at room temperature. Next, cells were permeabilized with 0.1% (v/v) Triton X-100 in PBS for 10 min at room temperature. For visualization of ECM, cells were fixed with 100% ice-cold methanol for 8 min at −20 °C. Slides were washed with PBS and blocked with 1% goat serum (TBD Science, Tianjin, China) for 30 min before washing with 0.1% (w/v) BSA in PBS. […] Cells were then mounted in DAPI Fluoromount-G (Thermo Fisher Scientific) and imaged using a Zeiss Axio Imager Z1 UV fluorescence microscope (Zeiss, Jena, Germany) and a Leica TCS SP5 laser scanning confocal microscope (Leica Biosystems, Baden-Württemberg, Germany).

The test system of test [4] is EDA-FN ECM of TGF-β1-treated fibroblasts. Briefly: Epifluorescence assay of AF38Pep-Cy5 binding to fibrotic ECM (IVIS). The settings on record: AF38Pep-Cy5 10 µg/mL. The class given is cell-based. The protocol:
as §1

In test [5] the target is T1, antifibrotic 38-amino-acid polypeptide (AF38Pep) (disulfide bridge between the two cysteines).
T1 construct: two stretches derived from integrins β1 and α4, linked by a serine; Design contains the ISTTPAK motif of integrin β1/β7 and the KNENKI motif of integrin α4; source: synthetic peptide (ChinaPeptides)
T1 peptide: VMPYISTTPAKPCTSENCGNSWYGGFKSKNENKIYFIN
Put plainly: ITC; 15 µM AF38Pep in the chamber well, 300 µM small peptide in the injection needle; 25 °C; HEPES buffered saline (140 mM NaCl, 1.5 mM Na2HPO4, 50 mM HEPES; pH 7); MicroCal iTC200; one set of sites model with number of binding sites assumed to be 1. The settings on record: both partners purified.

The target of test [6] is T2, FN-EDA, a peptide sharing amino acid sequence with the C-C′ loop of EDA-FN.
T2 peptide: TYSSPEDGIHEL
Put plainly: ITC. For orientation: ITC needs no label: the signal is the heat of the interaction.

Test [7] concerns the target T2, FN-EDA, a peptide sharing amino acid …. Put plainly: ITC.

Bridges are numbered along the chain shown (N, C = ends). Where no end group is shown, it is not given here.

The Kd is the equilibrium constant for the complex coming apart.

Chain of integrin α4 protein (ITGA4) (not stated (endogenous in fibroblasts; mouse NIH/3T3 and human HFL1 cells were cultured)) (Q00651 41-1039): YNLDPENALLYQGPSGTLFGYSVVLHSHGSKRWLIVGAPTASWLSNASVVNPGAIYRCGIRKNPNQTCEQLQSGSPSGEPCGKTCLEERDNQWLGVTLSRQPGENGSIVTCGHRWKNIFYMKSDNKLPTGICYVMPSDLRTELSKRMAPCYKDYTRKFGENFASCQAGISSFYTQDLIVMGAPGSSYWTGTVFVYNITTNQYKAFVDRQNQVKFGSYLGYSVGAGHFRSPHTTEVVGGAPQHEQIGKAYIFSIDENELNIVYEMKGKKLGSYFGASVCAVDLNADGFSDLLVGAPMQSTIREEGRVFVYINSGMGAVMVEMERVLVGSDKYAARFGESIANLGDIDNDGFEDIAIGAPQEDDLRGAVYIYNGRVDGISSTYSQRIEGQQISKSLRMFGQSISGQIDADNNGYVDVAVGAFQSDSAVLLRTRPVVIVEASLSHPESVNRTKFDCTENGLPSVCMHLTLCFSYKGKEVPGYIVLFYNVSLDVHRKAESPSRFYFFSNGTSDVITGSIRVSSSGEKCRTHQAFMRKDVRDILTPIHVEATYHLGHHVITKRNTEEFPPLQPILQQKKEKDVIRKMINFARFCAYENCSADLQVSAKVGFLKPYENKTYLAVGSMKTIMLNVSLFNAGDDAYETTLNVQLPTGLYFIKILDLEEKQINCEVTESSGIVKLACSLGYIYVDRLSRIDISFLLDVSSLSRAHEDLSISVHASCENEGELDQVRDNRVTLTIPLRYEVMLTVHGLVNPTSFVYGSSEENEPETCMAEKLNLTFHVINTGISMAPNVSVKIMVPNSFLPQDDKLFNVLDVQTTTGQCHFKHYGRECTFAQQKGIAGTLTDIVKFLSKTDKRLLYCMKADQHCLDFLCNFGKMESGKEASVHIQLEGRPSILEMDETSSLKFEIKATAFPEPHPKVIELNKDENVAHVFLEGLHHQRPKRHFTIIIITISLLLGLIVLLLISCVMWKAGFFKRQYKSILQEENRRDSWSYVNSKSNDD

For “extra domain A containing fibronectin (EDA-FN) (from UniProt P11276 33-2477) (natural protein)”, the total collagen synthesis (hydroxyproline assay) of NIH/3T3 cells after 48 h of TGF-β1 with AF38Pep as blocker, relative to TGF-β1 alone in test [1] worked out at 60.

In the case of “AF38Pep-Cy5: AF38Pep conjugated to Cy5 dye (non-sulphated Cy5-NHS-ester) (VMPYISTTPAKPCTSENCGNSWYGGFKSKNENKIYFIN; disulfide 13-18 (inferred); also: Cy5 label, site not given here)”, in test [2] (differentiated myofibroblasts), the “AF38Pep-Cy5 colocalization with FN1 staining, myofibroblast ECM” value is “colocalization with anti-FN1 staining (yellow) was prominent in areas of fibronectin deposition at cell membranes”. Further, the “AF38Pep-Cy5 staining of fibroblast ECM” value in test [2] (untreated control fibroblasts) is reported as “little to no staining”. For the same molecule, the “staining of fibroblast matrices, IST-9 or AF38Pep-Cy5” value in test [3] (fibroblasts, regardless of the order of addition) is given as “minimal, regardless of the order of addition to cells”. The “blocking of IST-9 staining by AF38Pep-Cy5 pretreatment” value in test [3] (myofibroblasts, AF38Pep-Cy5 first, then IST-9) is “pre-treatment blocked IST-9 staining”. In test [3] (myofibroblasts, IST-9 first, then AF38Pep-Cy5), the “labelling of EDA-FN after IST-9 pretreatment” value is “failed to label the elevated EDA-FN production”. Also, in test [4] (TGF-β1 10 ng/mL for 24, 48, 72 h), the “binding to fibrotic ECM with TGF-β1 treatment time” value was “increased binding of AF38Pep to the fibrotic ECM, which correlated with the increasing time of TGF-β1 treatment”. Moreover, the “binding at 48 h vs 0 h TGF-β1 treatment” value in test [4] (mean ± S.E., three experiments) was “significant increases in binding at 48 h”.

B1: FN-EDA, a peptide sharing amino acid sequence with the C-C′ loop of EDA-FN (peptide)
peptide: TYSSPEDGIHEL
notes: 12-residue stretch of the C-C′ loop of extra domain A (EDA) of fibronectin; also called fibronectin EDA-peptide; EDA-FN C-C′ loop peptide; source: synthetic peptide (ChinaPeptides)
As for B1, the binding result in test [5] is “binds”.

B2: antifibrotic 38-amino-acid polypeptide (AF38Pep) (designed binder)
peptide: VMPYISTTPAKPCTSENCGNSWYGGFKSKNENKIYFIN
modifications: disulfide 13-18 (inferred)
Turning to B2, binding in test [6] was characterised by a dissociation constant (Kd) of 858 nM. The Ka in test [7] is 1.11e+06 M⁻¹.
